Reference: patent US7754705B2, “Cationic steroid antimicrobial compositions and methods of use” (priority 2006, dated 2010)
Where two headings read alike, the source gives them in different places.

Assays:
vaccinia virus [1] = test system: vaccinia virus
vaccinia virus [2] = type: cell-based, vaccinia virus; human keratinocytes (HaCaT)
vaccinia virus [3] = experiment: microbe, parasite or virus in culture; conditions: Orthopoxvirus vaccinia, BSC-1, in Chlorocebus sabaeus, 24 h
vaccinia lipid envelope = type: binding, vaccinia virus; keratinocytes

SMILES | % Viability (vaccinia virus [1]; 5 μM) | % Viability (vaccinia virus [1]; 10 μM) | % Viability (vaccinia virus [1]; 25 μM) | % Viability (vaccinia virus [1]; 50 μM) | % Viability (vaccinia virus [1]; 100 μM) | activity against vaccinia virus (vaccinia gene expression) (vaccinia virus [2]) | concentration at which significant viral killing was observed / compound was effective (vaccinia virus [1]) | effectiveness in killing vaccinia virus (in words) (vaccinia virus [1]) | % Viability (vaccinia virus [1]; 1 μM) | viability at 5 µM (vaccinia virus [3]) | viability at 10 µM (vaccinia virus [3]) | viability at 25 µM (vaccinia virus [3]) | viability at 50 µM (vaccinia virus [3]) | viability at 100 µM (vaccinia virus [3]) | incorporation into vaccinia lipid envelope versus keratinocyte membrane (vaccinia lipid envelope)
CC(CCCN)C1CCC2C3C(OCCCN)CC4CC(OCCCN)CCC4(C)C3CC(OCCCN)C12C (stereo not drawn) [CSA-15] | 98.88% | 93.68% | 101.49% | 97.40% | 65.80% |  |  |  |  |  |  |  |  |  | 
CCCCCCCCOCCCC(C)C1CCC2C3C(OCCCN)CC4CC(OCCCN)CCC4(C)C3CC(OCCCN)C12C (stereo not drawn) [CSA-7] | 0.56% | 0.00% | 0.00% | 0.00% | 0.00% | most effective | 5 µM |  |  |  |  |  |  |  | 
CC(CCCOCCCN)C1CCC2C3C(OCCCN)CC4CC(OCCCN)CCC4(C)C3CC(OCCCN)C12C (stereo not drawn) [CSA-25] | 97.40% | 74.35% | 66.91% | 39.41% | 10.04% |  |  |  |  |  |  |  |  |  | 
CCCCCCCCCCCCCCCCNCCCC(C)C1CCC2C3C(OCCCN)CC4CC(OCCCN)CCC4(C)C3CC(OCCCN)C12C.Cl.Cl.Cl.Cl (stereo not drawn) [CSA-92] | 0.00% | 0.00% | 0.00% | 0.00% | 0.00% |  |  | most effective | 0.00% |  |  |  |  |  | 
CC(CCCOS(=O)(=O)O)C1CCC2C3C(OCCCN)CC4CC(OCCCN)CCC4(C)C3CC(OCCCN)C12C (stereo not drawn) [CSA-21] | 100.00% | 71.76% | 40.39% | 14.12% | 4.31% |  |  |  |  |  |  |  |  |  | 
CCCCCCCCNCCC[C@@H](C)[C@H]1CC[C@H]2[C@@H]3[C@H](OCCCN)C[C@@H]4C[C@H](OCCCN)CC[C@]4(C)[C@H]3C[C@H](OCCCN)[C@]12C [CSA-13] | 37.50% | 8.82% | 3.31% | 0.00% | 0.00% | most effective |  |  |  |  |  |  |  |  | 
CCCCCN(CCCCC)CCCC(C)C1CCC2C3C(OCCCN)CC4CC(OCCCN)CCC4(C)C3CC(OCCCN)C12C.Cl.Cl.Cl.Cl (stereo not drawn) [CSA-90] | 23.67% | 14.49% | 7.73% | 4.83% | 0.48% |  |  |  | 64.73% |  |  |  |  |  | 
CC(CCCO)C1CCC2C3C(OCCCN)CC4CC(OCCCN)CCC4(C)C3CC(OCCCN)C12C (stereo not drawn) [CSA-8] | 61.87% | 28.79% | 4.67% | 2.33% | 1.56% |  |  |  |  |  |  |  |  |  | 
CCCCCCCCN(CCCCCCCC)CCCC(C)C1CCC2C3C(OCCCN)CC4CC(OCCCN)CCC4(C)C3CC(OCCCN)C12C.Cl.Cl.Cl.Cl (stereo not drawn) [CSA-91] | 0.00% | 0.00% | 0.00% | 0.00% | 0.00% |  |  | most effective | 10.31% |  |  |  |  |  | 
CC(O)[C@H]1CC[C@H]2[C@@H]3[C@H](OCCCN)C[C@@H]4C[C@H](OCCCN)CC[C@]4(C)[C@H]3C[C@H](OCCCN)[C@]12C (stereo partly drawn) [CSA-11] |  |  |  |  |  |  |  |  |  | 84.2% | 92.9% | 100% | 97.3% | 98.4% | 
CC(CCCNC(=O)CCC(=O)c1ccc2cc(N(C)C)ccc2c1)C1CCC2C3C(OCCCN)CC4CC(OCCCN)CCC4(C)C3CC(OCCCN)C12C (stereo not drawn) [CSA-59] | 97.83% | 66.31% | 26.09% | 0.54% | 0.00% |  |  |  |  |  |  |  |  |  | preferentially incorporates into the vaccinia lipid envelope over the keratinocyte membrane with a high degree of selectivity
CC(CCCO)C1CCC2C3C(NC(=O)CCCCCN)CC4CC(NC(=O)CCCCCN)CCC4(C)C3CC(NC(=O)CCCCCN)C12C (stereo not drawn) [CSA-31] | 99.24% | 99.24% | 101.52% | 102.28% | 101.52% |  |  | little or no detectable activity |  |  |  |  |  |  | 
CCCCCCCCNCCC[C@@H](C)[C@H]1CC[C@H]2[C@@H]3CC[C@@H]4C[C@H](OCCCN)CC[C@]4(C)[C@H]3C[C@H](OCCCN)[C@]12C [CSA-46] | 41.89% | 3.77% | 0.38% | 0.00% | 0.00% | most effective |  |  |  |  |  |  |  |  | 
CCCOCCCC(C)C1CCC2C3C(OCCCN)CC4CC(OCCCN)CCC4(C)C3CC(OCCCN)C12C (stereo not drawn) [CSA-17] | 53.18% | 19.48% | 3.00% | 0.00% | 0.00% |  |  |  |  |  |  |  |  |  | 
CC(CCCNCCCNCCCN)C1CCC2C3C(OCCCN)CC4CC(OCCCN)CCC4(C)C3CC(OCCCN)C12C (stereo not drawn) [CSA-54] | 103.91% | 101.12% | 95.53% | 101.12% | 95.53% |  |  | little or no detectable activity |  |  |  |  |  |  | 
